Measurements reported in publication PMC9670909 (ACS Omega, 2022).

Experiments:
[1] = biological target: T1, MAO-B (Homo sapiens, UniProt P27338); experiment: MAO-B inhibitory assay; type: biochemical; conditions: MAO-B IC50, kynuramine 30 μM, potassium phosphate buffer pH 7.4, 37 °C, 20 min
T1 sequence (P27338 1-520): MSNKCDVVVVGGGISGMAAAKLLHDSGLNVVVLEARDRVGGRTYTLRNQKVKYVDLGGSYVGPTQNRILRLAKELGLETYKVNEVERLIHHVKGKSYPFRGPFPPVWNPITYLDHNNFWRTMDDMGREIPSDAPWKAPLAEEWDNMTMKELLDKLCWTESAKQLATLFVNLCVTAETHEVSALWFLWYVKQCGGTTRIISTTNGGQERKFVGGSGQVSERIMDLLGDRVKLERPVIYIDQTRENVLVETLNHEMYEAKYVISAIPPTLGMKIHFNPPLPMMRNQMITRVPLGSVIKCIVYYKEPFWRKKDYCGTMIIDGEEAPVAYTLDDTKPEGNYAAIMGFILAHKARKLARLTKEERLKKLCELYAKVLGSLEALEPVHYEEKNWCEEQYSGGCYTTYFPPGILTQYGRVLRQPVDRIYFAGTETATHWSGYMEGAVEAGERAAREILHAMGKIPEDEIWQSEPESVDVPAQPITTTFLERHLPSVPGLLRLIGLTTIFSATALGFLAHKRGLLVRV

[2] = biological target: T2, Human recombinant MAO-A (Homo sapiens, UniProt P21397); experiment: MAO-A inhibitory assay; type: biochemical
T2 sequence (P21397 1-527): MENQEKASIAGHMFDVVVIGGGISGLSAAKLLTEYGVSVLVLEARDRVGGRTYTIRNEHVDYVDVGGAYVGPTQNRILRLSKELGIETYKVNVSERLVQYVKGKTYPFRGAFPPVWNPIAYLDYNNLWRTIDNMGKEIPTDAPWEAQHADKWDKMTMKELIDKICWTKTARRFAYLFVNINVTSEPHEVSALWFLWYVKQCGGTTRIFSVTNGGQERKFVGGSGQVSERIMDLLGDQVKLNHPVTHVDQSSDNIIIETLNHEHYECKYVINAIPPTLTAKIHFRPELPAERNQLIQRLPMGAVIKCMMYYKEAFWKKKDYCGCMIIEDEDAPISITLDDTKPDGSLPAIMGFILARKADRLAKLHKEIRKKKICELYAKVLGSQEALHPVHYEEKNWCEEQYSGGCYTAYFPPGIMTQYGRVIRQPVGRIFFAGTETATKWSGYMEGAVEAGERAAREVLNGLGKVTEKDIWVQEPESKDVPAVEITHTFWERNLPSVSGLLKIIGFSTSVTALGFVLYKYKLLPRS

| IC50 [1] [µM] | IC50 [2] [µM] | SMILES |
| --- | --- | --- |
| 52.8 | > 100 | COc1cc(OC)c2c(c1)C(O)(c1cc(C)cc(OC)c1OC)OC2=O (stereo not drawn) [compound 12, 3-(2,3-Dimethoxy-5-methylphenyl)-3-hydroxy-5,7-dimethoxyisobenzofuran-1(3H)-one] |
| > 100 | 62.1 | COc1cc(OC)c(Br)c(C(=O)c2cc(C)cc(OC)c2OC)c1 [compound 16, (2-Bromo-3,5-dimethoxyphenyl)(2,3-dimethoxy-5-methylphenyl)methanone] |
| > 100 | > 100 | COc1cc(OC)c(C#N)c(C(=O)c2cc(C)cc(OC)c2OC)c1 [compound 17, 2-(2,3-Dimethoxy-5-methylbenzoyl)-4,6-dimethoxybenzonitrile] |
| > 100 | > 100 | COC(=O)c1c(OC)cc(OC)cc1C(=O)c1cc(C)cc(OC)c1OC [compound 19, Methyl 2-(2,3-dimethoxy-5-methylbenzoyl)-4,6-dimethoxybenzoate] |
| 61.6 | 47 | CCOC(=O)c1c(OC)cc(OC)cc1C(=O)c1cc(C)cc(OC)c1OC [compound 21, Ethyl 2-(2,3-dimethoxy-5-methylbenzoyl)-4,6-dimethoxybenzoate] |
| > 100 | > 100 | COc1cc(C)cc(C(=O)c2cc(OCc3ccccc3)cc(OCc3ccccc3)c2)c1OC [compound 25, (3,5-Bis(benzyloxy)phenyl)(2,3-dimethoxy-5-methylphenyl)methanone] |
| > 100 | > 100 | COc1cc(C)cc(C(=O)c2cc(OCc3ccccc3)cc(OCc3ccccc3)c2Br)c1OC [compound 26, (3,5-Bis(benzyloxy)-2-bromophenyl)(2,3-dimethoxy-5-methylphenyl)methanone] |
| > 100 | > 100 | COc1cc(C)cc(C(=O)c2cc(OCc3ccccc3)cc(OCc3ccccc3)c2C#N)c1OC [compound 27, 2,4-Bis(benzyloxy)-6-(2,3-dimethoxy-5-methylbenzoyl)benzonitrile] |
| 43.7 | 14.8 | COc1cc(C)cc(C(=O)c2cc(O)cc(O)c2Br)c1O [compound 31, (2-Bromo-3,5-dihydroxyphenyl)(2-hydroxy-3-methoxy-5-methylphenyl)methanone] |
| 53.6 | 34.1 | COCOc1cc(O)cc(C(=O)c2cc(C)cc(OC)c2O)c1Br [compound 32, (2-Bromo-5-hydroxy-3-(methoxymethoxy)phenyl) (2-hydroxy-3-methoxy-5-methylphenyl)methanone] |
| > 100 | 27.5 | COCOc1cc(OC)cc(C(=O)c2cc(C)cc(OC)c2OC)c1Br [compound 33, (2-Bromo-5-methoxy-3-(methoxymethoxy)phenyl)(2,3-dimethoxy-5-methylphenyl)methanone] |
| > 100 | 24.8 | COCOc1cc(OC)cc(C(=O)c2cc(C)cc(OC)c2OC)c1C#N [compound 34, 2-(2,3-Dimethoxy-5-methylbenzoyl)-4-methoxy-6-(methoxymethoxy)benzonitrile] |
| > 100 | > 100 | COCOc1cc(OC)cc2c1C(=O)NC2(O)c1cc(C)cc(OC)c1OC (stereo not drawn) [compound 35, 3-(2,3-Dimethoxy-5-methylphenyl)-3-hydroxy-5-methoxy-7-(methoxymethoxy)isoindolin-1-one] |
| 38.4 | 31.9 | COc1cc(O)c2c(c1)C(O)(c1cc(C)cc(OC)c1OC)NC2=O (stereo not drawn) [compound 36, 3-(2,3-Dimethoxy-5-methylphenyl)-3,7-dihydroxy-5-methoxyisoindolin-1-one] |
| 18.6 | 52.2 | COCOc1cc(OCc2ccccc2)cc(C(=O)c2cc(C)cc(OC)c2OCc2ccccc2)c1Br [compound 37, (5-(Benzyloxy)-2-bromo-3-(methoxymethoxy)phenyl) (2-(benzyloxy)-3-methoxy-5-methylphenyl)methanone] |
| 94.3 | 20.6 | COc1cc(C)cc(C(=O)c2cc(OCc3ccccc3)cc(O)c2Br)c1OCc1ccccc1 [compound 38, (5-(Benzyloxy)-2-bromo-3-hydroxyphenyl) (2-(benzyloxy)-3-methoxy-5-methylphenyl)methanone] |
| > 100 | > 100 | COc1cc(OCc2ccccc2)cc(C(=O)c2cc(C)cc(OC)c2OCc2ccccc2)c1Br [compound 39, (5-(Benzyloxy)-2-bromo-3-methoxyphenyl) (2-(benzyloxy)-3-methoxy-5-methylphenyl)methanone] |
| > 100 | > 100 | COc1cc(OCc2ccccc2)cc(C(=O)c2cc(C)cc(OC)c2OCc2ccccc2)c1C#N [compound 40, (5-(Benzyloxy)-2-cyano-3-methoxyphenyl) (2-(benzyloxy)-3-methoxy-5-methylphenyl)methanone] |
